In assay [1] the test system is rat hepatic microsomal PTPases. Particulars: PTPase activity, compound at 50 μM.
Assay [2] concerns the target T1, Human recombinant PTP1B (Homo sapiens, UniProt P18031).
T1 construct: made in house
T1 sequence (P18031 1-435): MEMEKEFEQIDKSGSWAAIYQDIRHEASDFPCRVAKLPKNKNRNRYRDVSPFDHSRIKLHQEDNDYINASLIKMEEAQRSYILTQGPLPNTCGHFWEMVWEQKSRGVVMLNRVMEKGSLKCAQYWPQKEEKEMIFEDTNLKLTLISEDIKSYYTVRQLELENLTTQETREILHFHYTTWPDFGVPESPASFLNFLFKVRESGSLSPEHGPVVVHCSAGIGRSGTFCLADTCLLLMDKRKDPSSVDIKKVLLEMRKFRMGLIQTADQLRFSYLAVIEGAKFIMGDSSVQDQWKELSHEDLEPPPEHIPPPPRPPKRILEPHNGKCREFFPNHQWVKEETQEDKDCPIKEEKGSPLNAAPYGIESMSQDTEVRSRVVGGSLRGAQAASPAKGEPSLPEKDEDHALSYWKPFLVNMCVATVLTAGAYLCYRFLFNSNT
It is filed as biochemical. To be noted: read-out: IC50.

Assay [3] has as its system diabetic (ob/ob) mice. Description: Blood glucose lowering activity in diabetic (ob/ob) mice. It is filed as in vivo, mouse. Particulars: Mus musculus, po, ob/ob mice. How it is done: The blood glucose lowering activity of representative compounds of this invention were determined in an in vivo standard procedure using diabetic (ob/ob) mice. The procedures used and results obtained are briefly described below. The non-insulin dependent diabetic (NIDDM) syndrome can be typically characterizes by obesity, hyperglycemia, abnormal insulin secretion, hyperinsulinemia and insulin resistance. […] In each test procedure, mice [Male or female ob/ob (C57 B1/6J) and their lean litermates (ob+ or +/+, Jackson Laboratories) ages 2 to 5 months (10 to 65 g)] of a similar age were randomized according to body weight into 4 groups of 10 mice. The mice were housed 5 per cage and are maintained on normal rodent chow with water ad libitum. Mice received test compound daily by gavage (suspended in 0.5 ml of 0.5% methyl cellulose); dissolved in the drinking water; or admixed in the diet. […] The dose is calculated based on the fed weekly body weight and is expressed as active moiety. […] Control mice received vehicle only. On the morning of Day 4, 7 or 14 two drops of blood (approximetly 50 ul) were collected into sodium fluoride containing tubes either from the tail vein or after decapitation. For those studies in which the compound was administered daily by gavage the blood samples were collected two hours after compound administration. The plasma was isolated by centrifugation and the concentration of glucose is measured enzymatically on an Abbott V. P. Analyzer. […] Analysis of variance followed by Dunett's Comparison Test (one-tailed) are used to estimate the significant difference between the plasma glucose values from the control group and the individual compound treated groups (CMS SAS Release 5.18).

Setting [4] is: 96 h, plasma glucose Day 4, 7 or 14, read-out: % Change Glucose from Vehicle.
The mark [5] stands for this setting: read-out: % Change Insulin from Vehicle.

Read-outs that look alike come from different tables or passages of the source.

By IC50 is commonly meant the midpoint of a concentration-inhibition curve. Regarding `N#Cc1c2ccccc2c(-c2cc(Br)c(O[C@@H](Cc3ccccc3)C(=O)O)c(Br)c2)c2c1sc1ccccc12` [Example 115, (S)-2-[2,6-Dibromo-4-(6-cyano-benzo[b]naphtho[2,3-d]thiophen-11-yl)-phenoxy]-3-phenyl-propionic acid], the “% Change from Control” value in assay [1] is -55.43%. Also, in assay [2], the half-maximal inhibitory concentration (IC50) turned out to be 279 nM. Also, the values for the change in vivo at 100 mg/kg in assay [3] (setting [4]) and in assay [3] (setting [5]) were -33.9% and 52%, respectively.
The matching figures for `O=C(O)[C@@H](Cc1ccccc1)Oc1ccc(-c2c3ccccc3cc3sc4ccccc4c23)cc1` [Example 117, (R)-2-[4-(Benzo[b]naphtho[2,3-d]thiophen-11-yl)-phenoxy]-3-phenyl-propionicacid]: -79.06%, 1510 nM, -14.5% and -83.8%.
As for `O=C(O)[C@@H](Cc1ccccc1)Oc1c(Br)cc(-c2c3ccccc3c(Br)c3oc4ccccc4c23)cc1Br` [Example 216, (R)-2-[2,6-Dibromo-4-(6-bromo-benzo[b]naphtho[2,3-d]furan-11-yl)-phenoxy]-3-phenyl-propionic acid], in assay [1], the “% Change from Control” value is -60.67%. Besides, in assay [2], the IC50 turned out to be 83 nM. Further, the change in vivo at 5 mg/kg is -14.8% in assay [3] (setting [4]) and -55.9% in assay [3] (setting [5]). In addition, the change in vivo at 10 mg/kg in assay [3] (setting [4]) was -28.7%; in assay [3] (setting [5]), -69.4%.
For `C[C@@H](Oc1c(Br)cc(-c2c3ccccc3c(Br)c3sc4ccccc4c23)cc1Br)C(=O)O` [Example 121, (R)-2-[2,6-Dibromo-4-(6-bromo-benzo[b]naphtho[2,3-d]thiophen-11-yl)-phenoxy]-propionic acid], the “% Change from Control” value in assay [1] was -74.70%. Moreover, the IC50 in assay [2] was 184 nM. In assay [3] (setting [4]), the change in vivo at 10 mg/kg was 1.37% and the change in vivo at 100 mg/kg was -54.6%. Besides, in assay [3] (setting [5]), the change in vivo at 10 mg/kg is -41.8% and the change in vivo at 100 mg/kg is -87.8%.
With `O=C(O)[C@@H](CCN1C(=O)c2ccccc2C1=O)Oc1c(Br)cc(-c2c3ccccc3cc3sc4ccccc4c23)cc1Br` [Example 146, (R)-2-(4-Benzo[b]naphtho[2,3-d]thiophen-11-yl-2,6-dibromo-phenoxy)-4-(1,3-dioxo-1 , 3-dihydro-isoindol-2-yl)-butyric acid], the “% Change from Control” value in assay [1] was -71.95%. In addition, in assay [2], the IC50 is 64 nM. Further, the change in vivo at 100 mg/kg in assay [3] (setting [4]) is -45.8%; in assay [3] (setting [5]) it was -56.2%.
Turning to `C[C@@H](Oc1c(Br)cc(-c2c3ccccc3c(I)c3sc4ccccc4c23)cc1Br)C(=O)O` [Example 135, (R)-2-[2,6-Dibromo-4-(6-iodo-benzo[b]naphtho[2,3-d]thiophen-11-yl]-phenoxy]-propionic acid], the “% Change from Control” value in assay [1] is listed as -59.75%. Moreover, the IC50 in assay [2] turned out to be 209 nM. In addition, the results for the change in vivo at 25 mg/kg in assay [3] (setting [4]) and in assay [3] (setting [5]) were -15.8% and -57.4%, respectively.
The matching figures for `CC(C)c1cc(-c2c3ccccc3c(Br)c3sc4ccccc4c23)cc(C(C)C)c1O[C@H](Cc1ccccc1)C(=O)O` [Example 139, (2R)-2-[4-(6-Bromo-benzo[b]naphtho[2,3-d]thiophen-11-yl)-2,6-diisopropyl-phenoxy)-3-phenyl-propionic acid]: -64.89%, 61 nM, -18.5% and -22%.
Turning to `O=C(O)COc1c(Br)cc(-c2c3ccccc3c(Br)c3oc4ccccc4c23)cc1Br` [Example 215, [2,6-Dibromo-4-(6-bromo-benzo[b]naphtho[2,3-d]furan-11-yl)-phenoxy]-acetic acid], in assay [1], the “% Change from Control” value was -80.93%. For the same compound, in assay [2], the IC50 was found to be 490 nM. Moreover, the change in vivo at 100 mg/kg in assay [3] (setting [4]) was -39.4%; in assay [3] (setting [5]), -4.66%.
The matching figures for `O=C(O)COc1ccc(-c2c3ccccc3c(Br)c3sc4ccccc4c23)cc1` [Example 87]: -63.18%, 1680 nM, -15.8% and -88%.

The record behind these values is patent publication US6110962A, “11-aryl-benzo[B]naphtho[2,3-D]furans and 11-aryl-benzo[B]naphtho[2,3-D]thiophenes useful in the treatment of insulin resistance and hyperglycemia” (American Home Products Corporation, priority 1999, dated 2000).
